Laboratory results taken from patent publication US20220259202A1, “1-(4-(AMINOMETHYL)BENZYL)-2-BUTYL-2H-PYRAZOLO[3,4-C]QUINOLIN-4-AMINE DERIVATIVES AND RELATED COMPOUNDS AS TOLL-LIKE RECEPTOR (TLR) 7/8 AGONISTS, AS WELL AS ANTIBODY DRUG CONJUGATES THEREOF FOR USE IN CANCER THERAPY AND DIAGNOSIS” (SUTRO BIOPHARMA, INC., priority 2019, published 2022).

Key:
Test in all cases: HEK293 SEAP reporter assay, other TLRs (Biological Example 3)
Assay type in all cases: cell-based
Conditions in all cases: 16 hrs, up to 1 μM
human TLR4 = target: T1, human TLR4 (Homo sapiens, UniProt O00206+Q9Y6Y9)
T1 construct: host or cells: HEK293
T1 sequence (O00206 24-839): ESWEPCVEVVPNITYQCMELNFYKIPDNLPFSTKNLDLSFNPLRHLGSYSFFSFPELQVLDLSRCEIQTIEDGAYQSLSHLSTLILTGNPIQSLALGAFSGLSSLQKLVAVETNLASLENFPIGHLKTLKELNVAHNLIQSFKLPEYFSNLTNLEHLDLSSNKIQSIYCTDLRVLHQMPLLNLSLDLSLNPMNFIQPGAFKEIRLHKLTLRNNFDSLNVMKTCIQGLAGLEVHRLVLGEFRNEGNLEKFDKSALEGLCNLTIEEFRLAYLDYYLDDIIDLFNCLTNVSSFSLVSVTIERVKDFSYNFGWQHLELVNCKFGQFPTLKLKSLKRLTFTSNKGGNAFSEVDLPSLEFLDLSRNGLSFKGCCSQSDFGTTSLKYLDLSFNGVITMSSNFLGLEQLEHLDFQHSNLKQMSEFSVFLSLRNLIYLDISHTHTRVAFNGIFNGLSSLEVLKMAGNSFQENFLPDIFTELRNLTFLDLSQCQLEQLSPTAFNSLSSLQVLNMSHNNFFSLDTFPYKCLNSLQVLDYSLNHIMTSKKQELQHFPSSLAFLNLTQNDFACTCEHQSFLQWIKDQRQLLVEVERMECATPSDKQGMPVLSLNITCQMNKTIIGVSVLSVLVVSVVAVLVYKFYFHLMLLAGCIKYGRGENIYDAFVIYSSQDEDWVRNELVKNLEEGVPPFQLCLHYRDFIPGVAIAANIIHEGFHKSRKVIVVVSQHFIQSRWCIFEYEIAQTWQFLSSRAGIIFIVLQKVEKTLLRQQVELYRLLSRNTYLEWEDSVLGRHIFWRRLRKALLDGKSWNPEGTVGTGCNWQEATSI
T1 sequence (Q9Y6Y9 17-160 limits assumed): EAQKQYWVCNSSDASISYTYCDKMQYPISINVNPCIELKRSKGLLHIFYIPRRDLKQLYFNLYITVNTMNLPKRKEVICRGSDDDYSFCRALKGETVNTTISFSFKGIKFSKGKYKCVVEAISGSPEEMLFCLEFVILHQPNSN

human TLR2 = target: T2, human TLR2 (Homo sapiens, UniProt O60603)
T2 construct: host or cells: HEK293
T2 sequence (O60603 21-784): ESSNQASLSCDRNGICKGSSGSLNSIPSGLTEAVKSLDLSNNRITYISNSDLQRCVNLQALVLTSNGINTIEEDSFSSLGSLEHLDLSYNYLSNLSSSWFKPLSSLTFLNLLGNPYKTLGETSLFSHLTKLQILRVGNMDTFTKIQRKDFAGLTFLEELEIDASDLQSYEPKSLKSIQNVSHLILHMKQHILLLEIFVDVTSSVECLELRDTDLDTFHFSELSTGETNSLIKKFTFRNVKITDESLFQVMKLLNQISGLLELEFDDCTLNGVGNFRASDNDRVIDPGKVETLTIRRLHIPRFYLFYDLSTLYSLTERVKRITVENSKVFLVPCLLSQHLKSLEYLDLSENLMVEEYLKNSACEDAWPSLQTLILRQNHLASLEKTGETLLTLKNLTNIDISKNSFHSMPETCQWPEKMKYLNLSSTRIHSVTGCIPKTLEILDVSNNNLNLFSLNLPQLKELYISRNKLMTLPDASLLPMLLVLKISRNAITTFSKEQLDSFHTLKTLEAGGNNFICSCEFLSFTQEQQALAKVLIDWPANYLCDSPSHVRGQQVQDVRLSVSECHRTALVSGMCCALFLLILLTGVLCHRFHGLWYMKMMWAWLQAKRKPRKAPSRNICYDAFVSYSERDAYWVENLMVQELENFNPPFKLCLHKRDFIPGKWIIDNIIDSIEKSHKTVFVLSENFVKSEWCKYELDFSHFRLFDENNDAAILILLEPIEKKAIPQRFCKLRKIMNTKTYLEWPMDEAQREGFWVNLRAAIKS

mouse TLR8 = target: T3, mouse TLR8 (Mus musculus, UniProt P58682)
T3 construct: host or cells: HEK293
T3 sequence (P58682 24-1032): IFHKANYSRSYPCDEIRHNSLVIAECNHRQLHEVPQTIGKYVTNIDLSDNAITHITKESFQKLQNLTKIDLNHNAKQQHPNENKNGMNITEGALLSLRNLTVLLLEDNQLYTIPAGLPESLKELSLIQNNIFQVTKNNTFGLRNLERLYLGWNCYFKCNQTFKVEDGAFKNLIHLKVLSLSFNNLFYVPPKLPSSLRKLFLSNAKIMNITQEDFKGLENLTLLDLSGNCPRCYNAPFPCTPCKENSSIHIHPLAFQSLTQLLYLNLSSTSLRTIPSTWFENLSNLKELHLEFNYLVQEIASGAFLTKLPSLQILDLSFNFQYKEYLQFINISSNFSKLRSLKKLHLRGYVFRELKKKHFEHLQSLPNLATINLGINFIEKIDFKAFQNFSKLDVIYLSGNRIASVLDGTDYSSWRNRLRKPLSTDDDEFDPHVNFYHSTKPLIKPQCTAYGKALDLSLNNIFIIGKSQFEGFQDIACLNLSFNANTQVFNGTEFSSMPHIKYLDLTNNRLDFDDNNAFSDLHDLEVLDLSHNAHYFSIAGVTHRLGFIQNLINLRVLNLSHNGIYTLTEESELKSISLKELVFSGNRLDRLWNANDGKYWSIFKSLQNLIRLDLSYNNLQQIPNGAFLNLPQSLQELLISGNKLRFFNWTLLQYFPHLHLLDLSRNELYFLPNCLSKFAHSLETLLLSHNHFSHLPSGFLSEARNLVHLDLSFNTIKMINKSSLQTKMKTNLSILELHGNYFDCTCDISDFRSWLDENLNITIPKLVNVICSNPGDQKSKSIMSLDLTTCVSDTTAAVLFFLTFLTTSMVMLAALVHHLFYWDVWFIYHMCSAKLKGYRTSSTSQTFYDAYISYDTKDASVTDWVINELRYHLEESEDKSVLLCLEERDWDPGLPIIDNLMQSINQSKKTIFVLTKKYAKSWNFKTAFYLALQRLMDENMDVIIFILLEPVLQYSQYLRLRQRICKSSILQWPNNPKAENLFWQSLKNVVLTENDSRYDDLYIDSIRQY

human TLR5 = target: T4, human TLR5 (Homo sapiens, UniProt O60602)
T4 construct: host or cells: HEK293
T4 sequence (O60602 21-858): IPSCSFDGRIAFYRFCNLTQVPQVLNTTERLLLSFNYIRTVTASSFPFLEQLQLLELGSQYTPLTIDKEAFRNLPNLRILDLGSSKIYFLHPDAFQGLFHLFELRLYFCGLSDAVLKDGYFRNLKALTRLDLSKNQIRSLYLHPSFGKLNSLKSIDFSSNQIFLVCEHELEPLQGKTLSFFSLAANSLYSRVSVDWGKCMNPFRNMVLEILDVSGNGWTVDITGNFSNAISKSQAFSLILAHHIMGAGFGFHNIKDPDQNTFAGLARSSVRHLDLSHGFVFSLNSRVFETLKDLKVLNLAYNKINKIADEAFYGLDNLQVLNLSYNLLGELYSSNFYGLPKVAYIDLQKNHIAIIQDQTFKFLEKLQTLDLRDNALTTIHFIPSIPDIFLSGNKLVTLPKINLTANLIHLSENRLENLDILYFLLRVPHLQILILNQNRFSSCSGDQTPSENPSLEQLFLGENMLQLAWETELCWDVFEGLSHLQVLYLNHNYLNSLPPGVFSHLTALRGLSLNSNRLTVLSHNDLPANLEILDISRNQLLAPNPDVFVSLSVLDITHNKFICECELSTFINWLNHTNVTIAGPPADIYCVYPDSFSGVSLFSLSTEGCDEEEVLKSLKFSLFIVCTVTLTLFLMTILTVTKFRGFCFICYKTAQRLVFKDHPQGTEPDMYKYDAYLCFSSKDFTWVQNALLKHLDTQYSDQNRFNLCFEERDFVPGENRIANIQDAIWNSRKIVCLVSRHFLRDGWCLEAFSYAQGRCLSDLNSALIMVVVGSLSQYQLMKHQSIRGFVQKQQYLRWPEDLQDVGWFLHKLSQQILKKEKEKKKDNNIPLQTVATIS

Measured: EC50

CCCCc1nc2c(N)nc3ccccc3c2n1Cc1ccc(CN)cc1 [Compound A, reference compound]
> 1000 nM: all assays above

CCCCn1nc2c(N)nc3ccccc3c2c1Cc1ccc(CN)cc1 [Compound 1, 1-(4-(aminomethyl)benzyl)-2-butyl-2H-pyrazolo[3,4-c]quinolin-4-amine]
> 1000 nM: all assays above
